Test results: patent US9624161B2 (priority 2009, dated 2017)
Values joined by “and” are separate entries in the source; they are usually repeats but may differ in a detail not shown here. Equal entries are not always repeated.

How the values were obtained:
liver X receptor (LXR) = assay: Nuclear receptor cross-reactivity transcriptional activation assay; assay type: cell-based, human; conditions: agonist and antagonist modes
Description: Compound IV was screened for cross-reactivity against rat isoforms of glucocorticoid receptor (GR), mineralocorticoids receptor (MR), progesterone receptor (PR), androgen receptor (AR) and human isoforms of farnesoid X receptor (FXR), liver X receptor (LXR), peroxisome proliferator-activated receptors (PPAR-α and PPAR-γ), and retinoid X receptor (RXR-α) in both agonist and antagonist modes in transcriptional activation assays.

[1] = test system: treatment naïve male Cynomolgus monkeys; assay: Suppression and recovery of androgen levels in intact male monkeys, 30 mg/kg oral for 7 days; assay type: in vivo, Cynomolgus monkey; set-up: Circulating androgen level (mean±SEM) / Circulating androgen level after recovery: unit not given here
Description: The effect of Compound IV on suppression and recovery of testosterone levels in intact male monkeys was evaluated in conjunction with an oral pharmacokinetic study. Three treatment naïve male Cynomolgus monkeys (2 to 3 years old) were administered Compound IV at 30 mg/kg daily by oral gavage for 7 consecutive days. Blood samples were collected and divided into serum and plasma for testosterone and Compound IV quantitative measurements, respectively.

intact male rats = assay: Bone preservation despite reduction of LH and testosterone in rats (oral); assay type: in vivo, rat
Human 17β-HSD5 = target: T1, Human 17β-HSD5 (Homo sapiens, UniProt P42330); assay: 17β-HSD5 enzyme activity (14C androstenedione to testosterone, TLC); assay type: biochemical; conditions: purified protein, NADPH (FIG. 3)
T1 construct: GST (inferred from pGEX 4t1 vector; own knowledge) (N); made in house
T1 sequence (P42330 whole entry): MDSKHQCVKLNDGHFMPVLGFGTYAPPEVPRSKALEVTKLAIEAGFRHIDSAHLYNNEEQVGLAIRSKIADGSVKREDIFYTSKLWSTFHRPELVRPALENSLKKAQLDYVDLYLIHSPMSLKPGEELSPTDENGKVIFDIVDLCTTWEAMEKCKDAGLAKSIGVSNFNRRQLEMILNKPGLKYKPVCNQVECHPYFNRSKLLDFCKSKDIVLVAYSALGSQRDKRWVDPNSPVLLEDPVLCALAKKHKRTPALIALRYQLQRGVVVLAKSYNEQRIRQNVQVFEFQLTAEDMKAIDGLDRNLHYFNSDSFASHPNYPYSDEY

[2] = test system: morphine dependent rat model; assay: Morphine dependent rat model of hot flashes (tail skin temperature); assay type: in vivo; conditions: 5, 10, 15 and 30 mg/kg (FIG. 13)
Description: In addition to the similarities to the human condition, this experimental animal model has a short turn around time which makes it a useful high throughput screening tool for identifying compounds that can alleviate vasomotor symptoms using the tail skin temperature (TST). TST probes TA-40 (Data Sciences International, MN) were taped to the base of the tails and baseline temperatures were obtained for 15 minutes. After 15 minutes the animals were treated with naloxone (1 mg/kg, SQ) to reverse the effects of the morphine. Tail skin temperature (TST) was measured for one hour post-naloxone treatment with a sampling frequency of 5 secs throughout the course of the experiment. Following the data acquisition, the moving average of the temperature recorded every 60 seconds for each animal was calculated and further analyzed. Baseline temperature was computed as the average temperature acquired over the 15 minutes preceding naloxone administration. The area under the curve (AUC) was calculated by subtracting all the values post-naloxone administration from the baseline using a linear trapezoid method.

intact and ORX rats = assay: Prostate size in intact and ORX rats, Compound IV versus DES; assay type: in vivo, rat; conditions: rats (FIG. 11)
[3] = Oral bioavailability in dogs; assay type: in vivo; conditions: dog, plasma, depending on the formulation and route of administration
Description: (§1) Formulations using polyethylene glycol 300 (PEG300) generally produced higher exposures than microemulsions prepared in Tween 80 diluted in deionized water. […] Importantly, in dogs the exposure in the male 30 mg/kg PEG300 oral dose group exceeded the exposure necessary to produce the maximal effect on prostate reduction in the rat model of LH suppression.

[4] = Preliminary oral pharmacokinetics in monkeys; assay type: in vivo, monkey; conditions: preliminary pharmacokinetic studies
Description: as §1

[5] = test system: human peripheral blood lymphocytes; assay: Chromosomal aberrations in human peripheral blood lymphocytes in vitro; assay type: cell-based; conditions: concentrations up to 200 μM
Description: (§2) Compound IV was well-tolerated by rats and dogs after single and repeated oral administration (up to 28 days).

rats = assay: Single and repeated oral dose toxicity in rats (up to 28 days); assay type: in vivo, rat
Description: as §2

[6] = test system: healthy older male volunteers; assay: Study 4: proof of concept study in healthy older male volunteers (1000, 1500, 2000 mg tablets, 28 days); assay type: in vivo, human; conditions: each dose arm (1000, 1500, 2000 mg)
[7] = test system: men with castration resistant prostate cancer (CRPC); assay: Study 3: Compound IV 2000 mg daily in men with castration resistant prostate cancer maintained on ADT; assay type: in vivo, human; conditions: for Percentage of treated patients already on ADT (ITT population) below the free T cutoff of 0.5 pg/ml: Study 3, CRPC
Description: Men with CRPC (n=9) received 2000 mg Compound IV daily. The primary endpoint of the study was the proportion of subjects with a greater than or equal to 50% reduction in prostate specific antigen (PSA) from Day 1. Secondary endpoints included serum free T and SHBG which together with PSA were assessed at days 1, 15, 30, 60 and 90. Serum concentrations of total T, free T, SHBG and PSA were determined at baseline and during treatment.
A study (Study 3) was conducted to assess the effects of Compound IV on serum PSA progression in men with castration resistant prostate cancer who have been effectively treated with ADT and at the time of enrollment into this study have shown serum PSA progression. This study consisted of one dose arm with 9 subjects.
The subjects were 12 male subjects over age 18 years with castration resistant prostate cancer, who were being treated with androgen deprivation therapy (chemical or surgical castration) for at least 6 months, that have serum PSA >2 ng/mL or […] a 25% increase above the nadir after the initiation of androgen deprivation therapy (ADT) at study enrollment. The subjects were maintained on androgen deprivation therapy throughout the study.
The dose selected for the study was 2000 mg Compound IV. Four Compound IV tablets, 500 mg (2000 mg dose) were orally administered daily. […] Subjects received 2000 mg of Compound IV daily by mouth until study termination. Dosing was to be continued until their serum PSA had increased at least 25% and 2 ng/mL from the nadir at two successive sample times (approximately 30 days apart) after initiation of treatment with Compound IV. The prostate cancer working group (PCWG) definition of PSA progression was used (serum PSA has increased at least 25% and 2 ng/mL above the nadir after initiation of treatment with Compound IV on two successive sample times).
Assessments of serum PSA concentration were made at baseline and on Days 15, 30, and 60 (only 1 patient made it this far before study was terminated).
The proportion of subjects with a 50% decline from baseline in serum PSA (confirmed by a second PSA assessment at least one week later).

## O=C(c1ccc(O)c(F)c1)N(c1ccc(O)cc1)c1ccc(F)cc1 [Compound IV, 3-fluoro-N-(4-fluorophenyl)-4-hydroxy-N-(4-hydroxyphenyl)benzamide]
Liver X receptor (LXR)
  Agonist or antagonist activity at LXR: did not display any agonist or antagonist activity
[1]; 30 mg/kg daily oral 7 days, then 18-day drug-free recovery
  Circulating androgen level after recovery: 1757.7±369.5
[1]; 30 mg/kg daily oral, 7 days, three monkeys
  Decrease of circulating androgen levels compared to baseline: up to 47%
[1]; 30 mg/kg daily oral, Day 2
  Circulating androgen level (mean±SEM): 997±104
[1]; 30 mg/kg daily oral, Day 6
  Circulating androgen level (mean±SEM): 852±136
Intact male rats
  Bone loss associated with LH suppression: completely prevented the bone loss
Human 17β-HSD5
  Effect on 17β-HSD5 enzyme activity: partial inhibitory effect
[2]
  Effect on hot flashes (tail skin temperature after naloxone): attenuated hot flashes
Intact and ORX rats
  Reduction of prostate size: as effective as DES
[3]
  bioavailability: 3 to 12%
[4]
  Oral bioavailability: approximates or exceeds that in dogs
[5]
  Structural or numeric chromosomal aberrations: did not induce
rats
  Tolerability after single and repeated oral administration: well-tolerated
[6]
  SHBG increase over baseline: 300-600%
[7]; 15 days, men maintained on ADT with LHRH agonists alone
  Free T reductions and PSA decreases from baseline: in all of the men
[7]; CRPC patients on ADT
  Effect on serum total T levels: did not further reduce
[7]; Day 15
  Reduction in % FreeT: greater than 50%
[7]; 15 days on therapy
  Percentage of treated patients already on ADT (ITT population) below the free T cutoff of 0.5 pg/ml: 85.7%
[7]; 30 days on therapy
  Percentage of treated patients already on ADT (ITT population) below the free T cutoff of 0.5 pg/ml: 66.7%
[7]; 60 days on therapy
  Percentage of treated patients already on ADT (ITT population) below the free T cutoff of 0.5 pg/ml: 100%
[7]; after two weeks
  Patients with greater than 50% reduction in PSA: 3 of 7
[7]; day 15
  Men that reached free T below 0.5 pg/mL: 85.7%
[7]; day 30
  Men that reached free T below 0.5 pg/mL: 66.7%
[7]; day 60
  Men that reached free T below 0.5 pg/mL: 100%
[7]; seven evaluable subjects
  Subjects with a reduction in serum PSA from baseline to Day 15: All seven
[7]; subjects with at least 30 days of exposure
  Subjects with >50% reduction in serum PSA: all three and 2 of 3
